For orientation: Ki means the equilibrium dissociation constant of an inhibitor or competing ligand from its target.

For one test, the target named is T1, mouse EP1 (Mus musculus, UniProt P35375).
T1 construct: expressed in transfected cells; host or cells: CHO
T1 sequence (P35375 1-405): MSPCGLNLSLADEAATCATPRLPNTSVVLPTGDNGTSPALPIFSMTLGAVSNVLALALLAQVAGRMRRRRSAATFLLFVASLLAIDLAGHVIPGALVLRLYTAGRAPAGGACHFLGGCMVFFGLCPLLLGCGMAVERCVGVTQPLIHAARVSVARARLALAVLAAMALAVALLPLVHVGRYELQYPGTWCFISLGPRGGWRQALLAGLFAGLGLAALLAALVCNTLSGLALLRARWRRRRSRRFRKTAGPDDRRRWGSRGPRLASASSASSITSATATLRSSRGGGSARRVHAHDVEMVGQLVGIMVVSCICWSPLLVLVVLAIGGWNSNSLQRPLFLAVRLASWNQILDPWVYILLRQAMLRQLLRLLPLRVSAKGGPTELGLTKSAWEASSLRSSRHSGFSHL
The test is described as follows: Binding assay using expression cell of prostanoid receptor subtype (EP1; competition of specific 3H-PGE2 binding to CHO cell membrane fraction). The settings on record: Table 1, 3H-PGE2 2.5 nM, 1 hour, room temperature, pH6.0, read-out: dissociation constant to receptor subtype, Ki (EP1), present invention compounds. As for the experimental part:
(§1) (i) Binding Assay Using Expression Cell of Prostanoid Receptor Subtype
(§2) The standard assay mixture contained membrane fraction (0.5 mg/ml), ^3 H-PGE2 in a final volume of 200 microliter was incubated for 1 hour at room temperature. The reaction was terminated by addition of 3 ml of ice-cold buffer. The mixture was rapidly filtered through a glass filter (GF/B). The radioactivity associated with the filter was measured by liquid scintillation counting.
(§3) Non-specific binding was calculated as the binding in the presence of an excess (2.5 microM) of unlabeled PGE2. […] The following buffer was used in all reaction. Buffer:potassium phosphate (pH6.0, 10 mM), EDTA (1 mM), MgCl2 (10 mM), NaCl (0.1M).
(§4) The dissociation constant Ki (microM) of each compound was calculated by the following equation.

The next test concerns the target T2, mouse EP3 (Mus musculus, UniProt P30557).
T2 construct: expressed in transfected cells; host or cells: CHO
T2 sequence (P30557 1-365): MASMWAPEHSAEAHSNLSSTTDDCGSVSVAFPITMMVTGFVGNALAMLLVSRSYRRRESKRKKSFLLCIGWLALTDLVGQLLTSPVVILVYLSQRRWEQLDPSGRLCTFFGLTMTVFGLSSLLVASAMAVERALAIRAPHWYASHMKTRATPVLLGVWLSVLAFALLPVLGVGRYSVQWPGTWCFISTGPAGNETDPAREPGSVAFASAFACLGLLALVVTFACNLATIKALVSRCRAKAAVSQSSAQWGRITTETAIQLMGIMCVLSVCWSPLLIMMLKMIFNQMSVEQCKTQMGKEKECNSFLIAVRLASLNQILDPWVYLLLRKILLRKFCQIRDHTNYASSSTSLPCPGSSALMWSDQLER
The test can be described thus: Binding assay using expression cell of prostanoid receptor subtype (EP3; competition of specific 3H-PGE2 binding to CHO cell membrane fraction). The conditions noted are these: Table 1, 3H-PGE2 2.5 nM, 1 hour, room temperature, pH6.0, read-out: dissociation constant to receptor subtype, Ki (EP3), present invention compounds. As for the experimental part: as §1, §2, §3, §4

Regarding `Cc1cc(Br)ccc1S(=O)(=O)NC[C@H]1C2CCC(CC2)[C@H]1/C=C\CCCC(=O)O` [Example 2(d), 6-[(2S, 3S)-3-(4-bromo-2-methylphenylsulfonylaminomethyl)bicyclo[2.2. 2]octan-2-yl]-5Z-hexenoic acid], the Ki at mouse EP1 came out at 1.4 nM; on mouse EP3, 85 nM.
Regarding `Cc1cc(Cl)ccc1S(=O)(=O)NC[C@H]1C2CCC(CC2)[C@H]1/C=C/CCCC(=O)O` [Example 2(n), 6-[(2S, 3S)-3-(4-chloro-2-methylphenylsulfonylaminomethyl)bicyclo[2.2. 2]-octan-2-yl]-5E-hexenoic acid], the Ki amounted to 5.1 nM at mouse EP1 and 1900 nM on mouse EP3.
Take `O=C(O)CCC/C=C\[C@@H]1[C@@H]2CC[C@@H](C2)[C@@H]1CNS(=O)(=O)c1ccc(Cl)cc1Cl` [Example 5(a), 6-[(1R, 2S, 3S, 4S)-3-(2,4-dichlorophenylsulfonylaminomethyl)bicyclo[2.2. 1]-heptan-2-yl]-5Z-hexenoic acid]: the Ki came out at 12 nM on mouse EP1 and 280 nM at mouse EP3.
With `O=C(O)CCC/C=C\[C@@H]1[C@@H]2CC[C@@H](C2)[C@@H]1CNS(=O)(=O)c1ccc(Cl)cc1F` [Example 5(d), 6-[(1R, 2S, 3S, 4S)-3-(4-chloro-2-fluorophenylsulfonylaminomethyl)bicyclo[2.2. 1]heptan-2-yl]-5Z-hexenoic acid], the Ki on mouse EP1 worked out at 23 nM; on mouse EP3, 1200 nM.
For `O=C(O)CCC/C=C\[C@@H]1C2CCC(CC2)[C@@H]1CNS(=O)(=O)c1c(Cl)cc(Cl)cc1Cl` [Example 2(g), 6-[(2S, 3S)-3-(2,4,6-trichlorophenylsulfonylaminomethyl)bicyclo[2.2. 2]octan-2-yl]-5Z-hexenoic acid] the same measures were 3.4 nM and 950 nM.
For `Cc1cc(Cl)ccc1S(=O)(=O)NC[C@H]1C2CCC(CC2)[C@@H]1/C=C\CCCC(=O)O` [Example 2(c), 6-[(2S, 3S)-3-(4-chloro-2-methylphenylsulfonylaminomethyl)bicyclo[2.2. 2]octan-2-yl]-5Z-hexenoic acid] the same measures were 1.8 nM and 200 nM.
In the same order, the values of `Cc1cc(Cl)ccc1S(=O)(=O)NC[C@H]1CCCC[C@@H]1/C=C\CCCC(=O)O` [Example 3(f), 6-[(1R, 2S)-2-(4-chloro-2-methylphenylsulfonylaminomethyl)cyclohexyl]-5Z-hexenoic acid] are 1.1 nM and 41 nM.
Consider `Cc1cc(Cl)ccc1S(=O)(=O)NC[C@H]1[C@H]2CC[C@H](C2)[C@H]1/C=C\CCCC(=O)O` [Example 5(e), 6-[(1R, 2S, 3S, 4S)-3-(4-chloro-2-methylphenylsulfonylaminomethyl)bicyclo[2.2. 1]heptan-2-yl]-5Z-hexenoic acid], for which the Ki was 7.2 nM at mouse EP1 and 200 nM on mouse EP3.
`O=C(O)CCC/C=C\[C@@H]1C2CCC(CC2)[C@@H]1CNS(=O)(=O)c1ccc(Cl)cc1Cl` [Example 2, 6-[(2S, 3S)-3-(2,4-dichlorophenylsulfonylaminomethyl)bicyclo[2.2. 2]octan-2-yl]-5Z-hexenoic acid]: the results for the Ki on mouse EP1 and on mouse EP3 were 0.5 nM and 120 nM, respectively.
In the same order, the values of `O=C(O)CCC/C=C\[C@H]1CCCC[C@@H]1CNS(=O)(=O)c1c(Cl)cc(Cl)cc1Cl` [Example 3(e), 6-[(1R, 2S)-2-(2,4,6-trichlorophenylsulfonylaminomethyl)cyclohexyl]-5Z-hexenoic acid] are 8.4 nM and 110 nM.
For `O=C(O)CCC/C=C\[C@@H]1[C@@H](CNS(=O)(=O)c2ccc(Cl)cc2Cl)[C@@H]2C=C[C@H]1CC2` [Example 6(a), 6-[(1S, 4R, 5S, 6S)-6-(2,4-dichlorophenylsulfonylaminomethyl)bicyclo[2.2. 2]-oct-2-en-5-yl]-5Z-hexenoic acid] the same measures were 3.9 nM and 370 nM.
For `Cc1cc(Cl)cc(Cl)c1S(=O)(=O)NC[C@H]1C2CCC(CC2)[C@H]1/C=C\CCCC(=O)O` [Example 2(k), 6-[(2S, 3S)-3-(2,4-dichloro-6-methylphenylsulfonylaminomethyl)bicyclo[2.2. 2]octan-2-yl]-5Z-hexenoic acid] the same measures were 2.4 nM and 1400 nM.
`O=C(O)CCC/C=C\[C@@H]1[C@@H](CNS(=O)(=O)c2c(Cl)cc(Cl)cc2Cl)[C@H]2C=C[C@@H]1CC2` [Example 7(f), 6-[(1R, 4S, 5S, 6S)-6-(2,4,6-trichlorophenylsulfonylaminomethyl)bicyclo[2.2. 2]oct-2-en-5-yl]-5Z-hexenoic acid]: the Ki on mouse EP1 worked out at 7.2 nM; on mouse EP3 it was 1500 nM.
For `O=C(O)CCC/C=C\[C@@H]1[C@@H](CNS(=O)(=O)c2ccc(Cl)cc2F)[C@H]2C=C[C@@H]1CC2` [Example 7(d), 6-[(1R, 4S, 5S, 6S)-6-(4-chloro-2-fluorophenylsulfonylaminomethyl)bicyclo[2.2. 2]oct-2-en-5-yl]-5Z-hexenoic acid] the same measures were 3.9 nM and 1400 nM.
In the same order, the values of `Cc1cc(Br)ccc1S(=O)(=O)NC[C@H]1CC=CC[C@@H]1/C=C\CCCC(=O)O` [Example 4(f), 6-[(4R, 5S)-5-(4-bromo-2-methylphenylsulfonylaminomethyl)cyclohexen-4-yl]-5Z-hexenoic acid] are 5.7 nM and 12 nM.
For `Cc1cc(Cl)ccc1S(=O)(=O)NC[C@H]1CC=CC[C@@H]1/C=C\CCCC(=O)O` [Example 4(b), 6-[(4R, 5S)-5-(4-chloro-2-methylphenylsulfonylaminomethyl)cyclohexen-4-yl]-5Z-hexenoic acid] the same measures were 17 nM and 52 nM.
On to `O=C(O)CCC/C=C\[C@H]1CCCC[C@@H]1CNS(=O)(=O)c1ccc(Cl)cc1Cl` [Example 3(a), 6-[(1R, 2S)-2-(2,4-dichlorophenylsulfonylaminomethyl)cyclohexyl]-5Z-hexenoic acid], for which the Ki on mouse EP1 stood at 3.1 nM; at mouse EP3 it was 18 nM.
In the same order, the values of `O=C(O)CCC/C=C\[C@H]1CC=CC[C@@H]1CNS(=O)(=O)c1ccc(Cl)cc1F` [Example 4(c), 6-[(4R, 5S)-5-(4-chloro-2-fluorophenylsulfonylaminomethyl)cyclohexen-4-yl]-5Z-hexenoic acid] are 39 nM and 180 nM.
In the same order, the values of `Cc1cc(Cl)cc(C)c1S(=O)(=O)NC[C@@H]1[C@@H](/C=C\CCCC(=O)O)[C@H]2C=C[C@@H]1CC2` [Example 6(e), 6-[(1S, 4R, 5S, 6S)-6-(4-chloro-2,6-dimethylphenylsulfonylaminomethyl)bicyclo[2.2. 2]oct-2-en-5-yl]-5Z-hexenoic acid] are 4.2 nM and 1100 nM.
